Data reported in ChEMBL document CHEMBL1147258, “Cytochalasins Z4, Z5, and Z6, three new 24-Oxa[14]cytochalasans produced by Phoma exigua var. heteromorpha” (J Nat Prod, 2003).
Activity calls are given as the source filed them. The calls are words filed in the database; no cut-off is given here.

What was measured:
Solanum lycopersicum = experiment: Herbicidal activity against tomato seedlings assessed as inhibition of rootlet elongation at 100 uM; format: functional
Artemia = experiment: (§1) Toxicity in brine shrimp assessed as mortality of larvae at 100 uM; format: organism-based; settings: in vivo, 100 µM
[1] = as §1; format: organism-based; settings: artemia, in vivo; read-out: Activity

Row | SMILES | inhibition at 100 µM (Solanum lycopersicum) [%] | Activity (Artemia) | Activity (Solanum lycopersicum) | mortality at 100 µM [1] [%]
1 | C[C@H]1C/C=C/[C@H]2[C@@H]3O[C@]3(C)[C@@H](C)[C@H]3[C@H](Cc4ccccc4)NC(=O)[C@]32OC(=O)/C=C/CC(O)CC1 (stereo partly specified) [CYTOCHALASIN Z6] | 30 | Non-toxic | – | –
2 | C=C1[C@@H](C)[C@H]2[C@H](Cc3ccc(O)cc3)NC(=O)[C@]23OC(=O)/C=C/[C@H](O)CCC[C@@H](C)C/C=C/[C@H]3[C@@H]1O [CYTOCHALASIN Z5] | – | – | inactive | 21
3 | C=C1[C@@H](C)[C@H]2[C@H](Cc3ccccc3O)NC(=O)[C@]23OC(=O)/C=C/[C@H](O)CCC[C@@H](C)C/C=C/[C@H]3[C@@H]1O [CYTOCHALASIN Z4] | – | Non-toxic | inactive | –
